In patent publication US20100099674A1 (priority 2007, published 2010):

What was measured:
[1] = test system: Yersinia strain pIB102EL (YopE gene transcriptionally fused to luxAB); type: cell-based, Y. pseudotuberculosis
[2] = test system: YopH secretion by Yersinia-strain pIB102; type: cell-based, Y. pseudotuberculosis; details: reduction of assay read-out (pNPP dephosphorylation, 405 nm) at 50 or 20 μM; Ca2+ depleted medium, 37° C.
[3] = test system: J774A cells infected with Y. pseudotuberculosis YPIII (pIB102); type: cell-based; details: survival of the infected J774A cells at 20 or 10 μM; MOI 10, 16 h of infection
[4] = test system: Enterotoxic Escherichia coli (ETEC); type: cell-based

Row | SMILES | Lux Assay [1] | YopH Assay [2] | Ex vivo Y. pseudotb. [3] | Ex vivo ETEC (Neg Control) [4]
1 | O=[N+]([O-])c1cc(CN2CCN(c3ccccc3)CC2)c(O)c2ncccc12 [Substance 1] | ++ (key: + = <50% reduction of assay read-out at 50 μM; ++ = <50% reduction of assay read-out at 20 μM) | ++ (++ = <50% reduction of assay read-out at 20 μM) | ++ (++ = >70% survival of the infected cells at 10 μM) | –
2 | CN(Cc1cc([N+](=O)[O-])c2cccnc2c1O)C1CCCCC1 [Substance 2] | + (key: + = <50% reduction of assay read-out at 50 μM; ++ = <50% reduction of assay read-out at 20 μM) | – | – | –
3 | COc1ccccc1N1CCN(Cc2cc([N+](=O)[O-])c3cccnc3c2O)CC1 [Substance 3] | ++ (key: + = <50% reduction of assay read-out at 50 μM; ++ = <50% reduction of assay read-out at 20 μM) | + (+ = <50% reduction of assay read-out at 50 μM) | + (+ = >70% survival of the infected cells at 20 μM) | –
4 | CC1CN(Cc2cc([N+](=O)[O-])c3cccnc3c2O)CC(C)O1 (stereo not drawn) [Substance 4] | + (key: + = <50% reduction of assay read-out at 50 μM; ++ = <50% reduction of assay read-out at 20 μM) | + (+ = <50% reduction of assay read-out at 50 μM) | + (+ = >70% survival of the infected cells at 20 μM) | + (key: + = >70% survival of the infected cells at 50 μM; ++ = >70% survival of the infected cells at 20 μM)
5 | O=[N+]([O-])c1cc(CN2CCC(c3ccccc3)C2)c(O)c2ncccc12 (stereo not drawn) [Substance 5] | ++ (key: + = <50% reduction of assay read-out at 50 μM; ++ = <50% reduction of assay read-out at 20 μM) | ++ (++ = <50% reduction of assay read-out at 20 μM) | + (+ = >70% survival of the infected cells at 20 μM) | ++ (key: + = >70% survival of the infected cells at 50 μM; ++ = >70% survival of the infected cells at 20 μM)
6 | Oc1c(CN2CCN(c3ccccn3)CC2)cc(Cl)c2cccnc12 [Substance 6] | + (key: + = <50% reduction of assay read-out at 50 μM; ++ = <50% reduction of assay read-out at 20 μM) | + (+ = <50% reduction of assay read-out at 50 μM) | + (+ = >70% survival of the infected cells at 20 μM) | + (key: + = >70% survival of the infected cells at 50 μM; ++ = >70% survival of the infected cells at 20 μM)
7 | Oc1c(CN2CCN(c3ccc(F)cc3)CC2)cc(Br)c2cccnc12 [Substance 7] | + (key: + = <50% reduction of assay read-out at 50 μM; ++ = <50% reduction of assay read-out at 20 μM) | + (+ = <50% reduction of assay read-out at 50 μM) | ++ (++ = >70% survival of the infected cells at 10 μM) | ++ (key: + = >70% survival of the infected cells at 50 μM; ++ = >70% survival of the infected cells at 20 μM)
8 | Oc1c(CN2CCN(c3ccc(F)cc3)CC2)cc(Cl)c2cccnc12 [Substance 8] | + (key: + = <50% reduction of assay read-out at 50 μM; ++ = <50% reduction of assay read-out at 20 μM) | + (+ = <50% reduction of assay read-out at 50 μM) | ++ (++ = >70% survival of the infected cells at 10 μM) | + (key: + = >70% survival of the infected cells at 50 μM; ++ = >70% survival of the infected cells at 20 μM)
